# Assay results as given in US20060008512A1, “Composition and methods for improved animal performance” (priority 2004, published 2006).
# Like-named read-outs stand apart in the source and are kept apart here. Marks after values point to notes of the source that are not given here.
# What was measured:
# [1] = test system: turkey breeder hens; assay: Experiment 7: molting of turkey breeder hens with dietary L-thyroxine, porcine thyroid powder or TIC with or without protease; assay type: in vivo; conditions: for Ending (10 d) Body Wt / Liver Weight / Ovary Weight / Oviduct Weight: turkey breeder hens, 6 per treatment
# Text: Experiment 7. Molting of Turkey Breeder Hens with Dietary L-Thyroxine, Porcine Thyroid Powder, or Thyroactive Iodinated Casein With or Without Protease. Turkey breeder hens were molted with various dietary thyroxine treatments at Diamond K Research, […]. (Jun. 20-Jul. 1, 2005).
# [2] = test system: young rats; conditions: 10 mg L-thyroxine/kg diet; 400 mg magnesium/kg; cited from earlier work
# [3] = test system: 96-week old broiler breeder cockerels; conditions: 2 or 5 ppm T4 in diet for 4 weeks; cited from earlier work
# [4] = test system: growing cockerel and pullet chickens; conditions: 10 mg/kg dietary thyroid hormone; cited from earlier work
# [5] = test system: Hy-Line W-36 White Leghorn hens
# Procedure: Experiment 1. […] While acknowledging that injecting individual hens is commercially impractical (Webster, 2003), nevertheless an initial study was needed to establish the efficacy of T4 when it is delivered directly into the hens in precisely measured doses. The photoperiod was 17 hours of light per day (0330 hours to 2030 hours).
# [6] = daily injections of 150 mcg/kg body weight; cited from earlier work
# [7] = test system: laying turkeys; conditions: 2 mg L-thyroxine/hen/day i.m.; cited from earlier work
# [8] = 10 mg T4/kg diet fed for 10 days
# [9] = 25 mg T4/kg diet fed for 10 days
# [10] = 40 mg T4/kg diet fed for 10 days
smiles,measurement,setting,value
"N[C@@H](Cc1cc(I)c(Oc2cc(I)c(O)c(I)c2)c(I)c1)C(=O)O [L-thyroxine, 3,5,3′,5′-tetraiodo-L-thyronine]",Ending (10 d) Body Wt,[1]; [8],23.03 lb
same,Liver Weight,[1]; [8],143.0^bc g
same,Ovary Weight,[1]; [8],159.1^a g
same,Oviduct Weight,[1]; [8],124.1^a g
same,Ending (10 d) Body Wt,[1]; [9],25.11 lb
same,Liver Weight,[1]; [9],144.6^b g
same,Ovary Weight,[1]; [9],160.5^a g
same,Oviduct Weight,[1]; [9],134.7^a g
same,Ending (10 d) Body Wt,[1]; [10],22.99 lb
same,Liver Weight,[1]; [10],141.9^bc g
same,Ovary Weight,[1]; [10],129.1^a g
same,Oviduct Weight,[1]; [10],138.7^a g
same,Regressing reproductive tracts,"[1]; 10, 20, or 40 mg T4/kg diet, 10 days",not as effective as porcine thyroid powder
same,Weight gain in 16 days,[2],60 g
same,Week at which daily sperm output returned to control values,[3],11 week
same,Week at which plasma testosterone levels returned to control values,[3],5 week
same,Reduction in body weight gain compared to controls,[4],28.18%
same,Egg production,[5]; 250 μg T4 per kg body weight for 12 consecutive days,did not reduce egg production significantly
same,Onset of molt in all cages after the start of T4 injection,[5]; 500 μg T4 Group,11 days
same,Day of T4 injection by which egg production ceased entirely,"[5]; 1,000 μg T4 Group",≤ 8 days
same,Onset of molt in all cages after the start of T4 injection,"[5]; 1,000 μg T4 Group",9 days
same,Mortality,"[5]; 1,000 μg T4 Group, 2 of 8 hens, 9th and 10th day after start of injection",25%
same,Time to complete cessation of egg production,"[5]; 2,000 μg T4 per kg body weight for 3 consecutive days",≤ 6 days
same,Mortality,"[5]; 4,000 μg T4 Group, 1 of 4 hens, 8th day after start of injection",25%
same,Time to complete cessation of egg production,"[5]; 4,000 μg T4 per kg body weight for 3 consecutive days",≤ 4 days
same,End of Injections Body Weight,[5]; 250 mcg/kg body wt i.m. 12 d,1300 g
same,Initial Body Weight,[5]; 250 mcg/kg body wt i.m. 12 d,1495 g
same,Hen-day egg production,"[5]; 250 mcg/kg body wt i.m. 12 d from day 15, day 14",93.8%
same,Hen-day egg production,"[5]; 250 mcg/kg body wt i.m. 12 d from day 15, day 16",87.5%
same,Hen-day egg production,"[5]; 250 mcg/kg body wt i.m. 12 d from day 15, day 18",68.8%
same,Hen-day egg production,"[5]; 250 mcg/kg body wt i.m. 12 d from day 15, day 20",56.3%
same,Hen-day egg production,"[5]; 250 mcg/kg body wt i.m. 12 d from day 15, day 22",25.0%
same,Hen-day egg production,"[5]; 250 mcg/kg body wt i.m. 12 d from day 15, day 24",31.3%
same,Hen-day egg production,"[5]; 250 mcg/kg body wt i.m. 12 d from day 15, day 26",37.5%
same,Hen-day egg production,"[5]; 250 mcg/kg body wt i.m. 12 d from day 15, day 28",31.3%
same,Hen-day egg production,"[5]; 250 mcg/kg body wt i.m. 12 d from day 15, day 30",37.5%
same,Time after start of injecting until egg production significantly reduced,"[5]; 500 and 1,000 μg T4 Groups",4 days
same,End of Injections Body Weight,[5]; 500 mcg/kg body wt i.m. 8 d,1299 g
same,Initial Body Weight,[5]; 500 mcg/kg body wt i.m. 8 d,1472 g
same,Hen-day egg production,"[5]; 500 mcg/kg body wt i.m. 8 d from day 15, day 14",87.5%
same,Hen-day egg production,"[5]; 500 mcg/kg body wt i.m. 8 d from day 15, day 16",93.8%
same,Hen-day egg production,"[5]; 500 mcg/kg body wt i.m. 8 d from day 15, day 18",31.3%
same,Hen-day egg production,"[5]; 500 mcg/kg body wt i.m. 8 d from day 15, day 20",31.3%
same,Hen-day egg production,"[5]; 500 mcg/kg body wt i.m. 8 d from day 15, day 22",6.3%
same,Hen-day egg production,"[5]; 500 mcg/kg body wt i.m. 8 d from day 15, day 24",6.3%
same,Hen-day egg production,"[5]; 500 mcg/kg body wt i.m. 8 d from day 15, day 26",6.3%
same,Hen-day egg production,"[5]; 500 mcg/kg body wt i.m. 8 d from day 15, day 28",6.3%
same,Hen-day egg production,"[5]; 500 mcg/kg body wt i.m. 8 d from day 15, day 30",25.0%
same,Size of regressed reproductive tracts at necropsy,"[5]; 1,000 and 4,000 μg T4 Groups",≤ 50 % normal size
same,End of Injections Body Weight,"[5]; 1,000 mcg/kg body wt i.m. 8 d",1167 g
same,Initial Body Weight,"[5]; 1,000 mcg/kg body wt i.m. 8 d",1513 g
same,Hen-day egg production,"[5]; 1,000 mcg/kg body wt i.m. 8 d from day 15, day 14",81.3%
same,Hen-day egg production,"[5]; 1,000 mcg/kg body wt i.m. 8 d from day 15, day 16",68.8%
same,Hen-day egg production,"[5]; 1,000 mcg/kg body wt i.m. 8 d from day 15, day 18",31.3%
same,Hen-day egg production,"[5]; 1,000 mcg/kg body wt i.m. 8 d from day 15, day 20",12.5%
same,Hen-day egg production,"[5]; 1,000 mcg/kg body wt i.m. 8 d from day 15, day 22",0.0%
same,Hen-day egg production,"[5]; 1,000 mcg/kg body wt i.m. 8 d from day 15, day 24",0.0%
same,Hen-day egg production,"[5]; 1,000 mcg/kg body wt i.m. 8 d from day 15, day 26",0.0%
same,Hen-day egg production,"[5]; 1,000 mcg/kg body wt i.m. 8 d from day 15, day 28",0.0%
same,Hen-day egg production,"[5]; 1,000 mcg/kg body wt i.m. 8 d from day 15, day 30",0.0%
same,Onset of molt in all cages after the start of injection,"[5]; 2,000 and 4,000 μg T4 Groups",9 days
same,End of Injections Body Weight,"[5]; 2,000 mcg/kg body wt i.m. 3 d",1234 g
same,Initial Body Weight,"[5]; 2,000 mcg/kg body wt i.m. 3 d",1510 g
same,Hen-day egg production,"[5]; 2,000 mcg/kg body wt i.m. 3 d from day 15, day 14",62.5%
same,Hen-day egg production,"[5]; 2,000 mcg/kg body wt i.m. 3 d from day 15, day 16",87.5%
same,Hen-day egg production,"[5]; 2,000 mcg/kg body wt i.m. 3 d from day 15, day 18",87.5%
same,Hen-day egg production,"[5]; 2,000 mcg/kg body wt i.m. 3 d from day 15, day 20",75.0%
same,Hen-day egg production,"[5]; 2,000 mcg/kg body wt i.m. 3 d from day 15, day 22",50.0%
same,Hen-day egg production,"[5]; 2,000 mcg/kg body wt i.m. 3 d from day 15, day 24",12.5%
same,Hen-day egg production,"[5]; 2,000 mcg/kg body wt i.m. 3 d from day 15, day 26",0.0%
same,Hen-day egg production,"[5]; 2,000 mcg/kg body wt i.m. 3 d from day 15, day 28",0.0%
same,Hen-day egg production,"[5]; 2,000 mcg/kg body wt i.m. 3 d from day 15, day 30",0.0%
same,End of Injections Body Weight,"[5]; 4,000 mcg/kg body wt i.m. 3 d",1165 g
same,Initial Body Weight,"[5]; 4,000 mcg/kg body wt i.m. 3 d",1387 g
same,Hen-day egg production,"[5]; 4,000 mcg/kg body wt i.m. 3 d from day 15, day 14",62.5%
same,Hen-day egg production,"[5]; 4,000 mcg/kg body wt i.m. 3 d from day 15, day 16",87.5%
same,Hen-day egg production,"[5]; 4,000 mcg/kg body wt i.m. 3 d from day 15, day 18",100.0%
same,Hen-day egg production,"[5]; 4,000 mcg/kg body wt i.m. 3 d from day 15, day 20",87.5%
same,Hen-day egg production,"[5]; 4,000 mcg/kg body wt i.m. 3 d from day 15, day 22",25.0%
same,Hen-day egg production,"[5]; 4,000 mcg/kg body wt i.m. 3 d from day 15, day 24",0.0%
same,Hen-day egg production,"[5]; 4,000 mcg/kg body wt i.m. 3 d from day 15, day 26",0.0%
same,Hen-day egg production,"[5]; 4,000 mcg/kg body wt i.m. 3 d from day 15, day 28",0.0%
same,Hen-day egg production,"[5]; 4,000 mcg/kg body wt i.m. 3 d from day 15, day 30",0.0%
same,Decrease in fiber diameter,[6],7.8%
same,Increase in mohair length growth rate,[6],15%
same,Time out of egg production after treatment,[7],4 weeks
